According to patent US20080039431A1, “Method of improving plant growth by reducing viral infections” (priority 2006, published 2008):
Where “and” joins values, the source holds several entries; their conditions need not be identical. Equal entries are not always repeated.

Columns and labels:
[1] = system: tomato spotted wilt virus (TSWV); assay: Tobacco drench / broadcast spray trial (Example 8); assay type: in vivo, tobacco (Nicotiana tabacum); conditions: prothioconazole 0.0084 g ai/plant, imidacloprid 0.01 g/plant (drench), acibenzolar-S-methyl 2.47 g ai/Ha broadcast spray
Description: Cultivation—A trial on tobacco (Nicotiana tabacum) was initiated in Molino, Fla., to see if drenches of prothioconazole alone and in combination with the insecticide imidacloprid could control TSWV in tobacco. Plants of cultivar C-371 Gold were transplanted on April 28 into 9.1 meter plots with three replications. All eight treatments were applied after transplanting on May 1. Foliar treatments were applied as a broadcast spray, while drenches were applied as in Example 6. Acibenzolar-S-methyl is a plant defense activator used to control TSWV in tobacco.
Treatments— • Untreated • Imidacloprid@0.01 g imidacloprid/plant • Imidacloprid@0.015 g Imidacloprid/plant • Prothioconazole@0.0084 g active ingredient/plant • Prothioconazole@0.0084 g active ingredient/plant+Imidacloprid@0.01 g imidacloprid/plant • Prothioconazole@0.0084 g active ingredient/plant+Imidacloprid@0.015 g […] label. • Acibenzolar-S-methyl@2.47 g active ingredient/Ha as a broadcast spray as per label.
TSWV rating—For TSWV incidence determination the percentage of plants with TSWV symptoms (chlorosis and stunting) was determined for the eight treatments as in Example 6.

[2] = system: tomato spotted wilt virus (TSWV); assay: Replicated peanut field trials, in-furrow treatment at planting (Examples 1-3); assay type: in vivo, peanut (Arachis hypogaea L.); conditions: for TSWV Incidence (number of symptomatic feet of row per 60 foot plot): 8 replicate plots
Method: Cultivation—Three replicated field trials were conducted at the Bayer CropScience research farm in Tifton, Ga., using standard commercial peanut practices. Prior to planting, fields were flag staked to establish 8 replications per treatment per trial of two rows by 30 ft long (6 ft by 30 ft, 60 row feet total) each. On May 19, two cultivars of peanut (Arachis hypogaea L.), Georgia Green (two fields, Examples 1 and 2) and Carver (one field, Example 3) were planted using a two-row Monosem air planter. During the planting passes a tractor mounted compressed air system was used to spray the in-furrow treatment into the furrow before row closure. All other plots were not treated at planting. Single field passes were used to plant entire fields to ensure a uniform planting depth. Treatments— • Treated—Plots received an in-furrow application of prothioconazole at planting at a rate of 200 g prothioconazole/Ha. Through the season these plots received foliar fungicide maintenance using standard commercial fungicides including chlorothalonil and tebuconazole. • Untreated—Due to standard practices in peanut pesticide testing, each treated plot always included untreated peanut plots adjacent to the treated plots that serve as spacer rows. […] Untreated plots in Examples 1 and 3 received foliar maintenance applications to control foliar diseases. […] TSWV rating—Plots were examined periodically following emergence for differences in appearance. In certain instances, (August 19 data for example), TSWV incidence is determined as the number of row feet with TSWV symptoms (chlorosis and stunting) which was determined for the two treatments.

## OC(Cc1ccccc1Cl)(Cn1nc[nH]c1=S)C1(Cl)CC1 (centres unmarked) [Prothioconazole, prothioconazole]
[1]; 14 days after treatment
  Percent incidence TSWV in tobacco: 32.2%
[1]; 21 days after treatment
  Percent incidence TSWV in tobacco: 35.0%
[1]; 38 days after treatment
  Percent incidence TSWV in tobacco: 56.7%
[2]; Carver trial (Example 3), in-furrow treatment
  Reduction of TSWV incidence compared to untreated: not significant
[2]; Example 1, Georgia Green, in-furrow 200 g prothioconazole/Ha at planting with foliar maintenance (chlorothalonil, tebuconazole)
  TSWV Incidence (number of symptomatic feet of row per 60 foot plot): 18 feet of row per 60 foot plot (2×) and 14 feet of row per 60 foot plot and 19 feet of row per 60 foot plot (2×) and 8 feet of row per 60 foot plot and 12 feet of row per 60 foot plot and 20 feet of row per 60 foot plot
[2]; Example 2, Georgia Green, in-furrow 200 g prothioconazole/Ha at planting with foliar maintenance, adjacent untreated had no foliar maintenance
  TSWV Incidence (number of symptomatic feet of row per 60 foot plot): 13 feet of row per 60 foot plot and 25 feet of row per 60 foot plot (2×) and 24 feet of row per 60 foot plot and 17 feet of row per 60 foot plot and 18 feet of row per 60 foot plot and 27 feet of row per 60 foot plot and 20 feet of row per 60 foot plot
[2]; Example 3, Carver, in-furrow 200 g prothioconazole/Ha at planting with foliar maintenance
  TSWV Incidence (number of symptomatic feet of row per 60 foot plot): 17 feet of row per 60 foot plot and 8 feet of row per 60 foot plot and 19 feet of row per 60 foot plot and 26 feet of row per 60 foot plot and 12 feet of row per 60 foot plot and 16 feet of row per 60 foot plot and 7 feet of row per 60 foot plot and 9 feet of row per 60 foot plot
[2]; Georgia Green (Example 1 and 2), in-furrow treatment
  TSWV incidence in percent of row feet with symptoms compared to untreated controls: significantly lower
